Here are results for 7 compounds from patent publication US8685972B2, “Pyrimidine derivatives for treatment of alzheimer's disease” (Merck Sharp & Dohme Corp., priority 2008, dated 2014).

Usually IC50 stands for the concentration that inhibits the measured activity by half. Low readings indicate greater potency, high ones weaker potency.

For this test, the target named is T1, γ-secretase (Homo sapiens, UniProt P49768).
T1 construct: Human SH-SY5Y neuroblastoma cells overexpressing the direct β-secretase substrate SPA4CT; endogenous in cells; host or cells: human SH-SY5Y neuroblastoma cells (stably overexpressing the substrate SPA4CT, induced with sodium butyrate)
Nature of the test: Cell-Based γ-Secretase Assay (inhibition of Aβ(1-42) production, Meso Scale detection). The settings on record: Human SH-SY5Y neuroblastoma cells overexpressing SPA4CT; overnight incubation; Aβ(42) in media. The method, then: Cell-Based γ-Secretase Assay
Human SH-SY5Y neuroblastoma cells overexpressing the direct β-secretase substrate SPA4CT were induced with sodium butyrate (10 mM) for 4 hours prior to plating. Cells were plated at 35,000 cells/well/100 μl in 96-well plates in phenol red-free MEM/10% FBS, 50 mM HEPES, 1% Glutamine and incubated for 2 hrs at 37° C., 5% CO2.
Compounds for testing were diluted into Me2SO to give a ten point dose-response curve. Typically 10 μl of these diluted compounds in Me2SO were further diluted into 182 μl dilution buffer (phenol red-free MEM/10% FBS, 50 mM HEPES, 1% Glutamine) and 10 μl of each dilution was added to the cells in 96-well plates (yielding a final Me2SO concentration of 0.5%). Appropriate vehicle and inhibitor controls were used to determine the window of the assay.
After incubation overnight at 37° C., 5% CO2, 25 μl and 50 μl media were transferred into a standard Meso avidin-coated 96-well plate for detection of Aβ(40) and Aβ(42) peptides, respectively. 25 μl Meso Assay buffer (PBS, 2% BSA, 0.2% Tween-20) was added to the Aβ(40) wells followed by the addition of 25 μl of the respective antibody premixes to the wells:
Aβ(40) premix: 1 μg/ml ruthenylated G2-10 antibody, 4 μg/ml biotinylated 4G8 antibody diluted in Origen buffer
Aβ(42) premix: 1 μg/ml ruthenylated G2-11 antibody, 4 μg/ml biotinylated 4G8 antibody diluted in Origen buffer
(Biotinylated 4G8 antibody supplied by Signet Pathology Ltd; G2-10 and G2-11 antibodies supplied by Chemicon)
After overnight incubation of the assay plates on a shaker at 4° C., the Meso Scale Sector 6000 Imager was calibrated according to the manufacturer's instructions. After washing the plates 3 times with 150 μl of PBS per well, 150 μl Meso Scale Discovery read buffer was added to each well and the plates were read on the Sector 6000 Imager according to the manufacturer's instructions.
LD50 and IC50 values for inhibition of Aβ(40) and Aβ(42) were calculated by nonlinear regression fit analysis using the appropriate software (eg. Excel fit). The total signal and the background were defined by the corresponding Me2SO and inhibitor controls.
As for `COc1cnc(N2CCC(Cc3ccncc3)CC2)nc1Nc1cc(N(C)C)ccc1C` [Example 6], the concentration for half-maximal inhibition (IC50) was 1500 to 3000 nM. The same measure for `Cc1ccc(C(C)(C)C)cc1Nc1nc(N2CCC(Cc3ccncc3)CC2)ncc1F` [Example 22]: 1500 to 3000 nM; for `CCOc1cc(C)c(Nc2nc(N3CCC(Cc4ccncc4)CC3)ncc2Cl)cc1C(C)C` [Example 11]: 500 to 1500 nM. `Cc1cc(C)c(N(C)C)cc1Nc1ccnc(N2CCC(Cc3ccncc3)CC2)n1` [Example 10]: the IC50 lay within 1500 to 3000 nM. Compound `COC(=O)c1cc(Nc2cc(C(C)(C)C)ccc2C)nc(N2CCC(Cc3ccncc3)CC2)n1` [Example 18] gave a 50% inhibitory concentration (IC50) of 500 to 1500 nM. The compound `Cc1ccc(OC(C)C)cc1Nc1ccnc(N2CCC(Cc3ccncc3)CC2)n1` [Example 12] yielded a half-maximal inhibitory concentration (IC50) of 500 to 1500 nM.

In the case of `Cc1ccc(C(C)(C)C)cc1Nc1ccnc(N2CCC(Cc3ccncc3)CC2)n1` [Example 4], the IC50 was 500 to 1500 nM.
